Laboratory results published in US10130633B2, “Compounds” (BAYER PHARMA AKTIENGESELLSCHAFT, priority 2013, dated 2018).
pIC50: −log10 of the molar value.

Tests used:
[1] = tested on: HCT116 FOP control reporter cell line; assay: HCT116 FOPFlash control reporter assay (FOP control vector, non-functional TCF elements); format: cell-based; conditions: HCT116 FOP control reporter cells, 36 hours incubation, luciferase expression
From the text: In a parallel approach, HCT116 cells were cotransfected with the FOP control vector and pcDNA3. The FOP vector is identical to the TOP construct, but it contains instead of functional TCF elements a randomized, non-functional sequence. For this transfection a stable transfected cell line was generated as well.

[2] = tested on: constitutive active colorectal cancer cell (CRC) Wnt pathway; assay: HCT116 TOPFlash cellular reporter assay (Super TopFlash luciferase), constitutive active Wnt pathway; format: cell-based; conditions: HCT116 TOP reporter cells, 36 hours incubation, luciferase expression
Procedure: In order to discover and characterize small molecules which inhibit the constitutive active colorectal cancer cell (CRC) Wnt pathway, a cellular reporter assay was employed. […] Stable transfectants were generated by cotransfection with pcDNA3 and selection of stable transfected cells with 1 mg/ml G418.

| SMILES | pIC50 ([1]; Homo sapiens, HCT-116, 36 h) | pIC50 ([2]; Homo sapiens, HCT-116, 36 h) | pIC50 [1] | pIC50 [2] |
| --- | --- | --- | --- | --- |
| COCCN(C)C1(C(=O)Nc2cc(C(=O)Nc3nnc(-c4ccccc4)s3)ccc2OC(F)(F)F)CC1 [Example 261, 3-[({1-[(2-methoxyethyl)(methyl)amino]cyclopropyl}carbonyl)amino]-N-(5-phenyl-1,3,4-thiadiazol-2-yl)-4-(trifluoromethoxy)benzamide] | ≤ 4.30 | 6.82 |  |  |
| CC(C(=O)Nc1cc(NC(=O)c2cnc(-c3ccccc3)s2)ccc1OC(F)(F)F)N1CCOCC1 (centres unmarked) [Example 255, N-[3-{[2-(morpholin-4-yl)propanoyl]amino}-4-(trifluoromethoxy)phenyl]-2-phenyl-1,3-thiazole-5-carboxamide] | ≤ 4.30 | 5.68 |  |  |
| COc1ccc(NC(=O)c2ccc(-c3ccccc3)nc2)cc1NC(=O)C1(N2CCOCC2)CC1 [Example 256, N-[4-methoxy-3-({[1-(morpholin-4-yl)cyclopropyl]carbonyl}amino)phenyl]-6-phenylnicotinamide] | ≤ 4.30 | 6.62 |  |  |
| CC(C(=O)Nc1cc(C(=O)Nc2ccc(-c3ccccc3F)nc2)ccc1OC(F)(F)F)N1CCN(C2CC2)CC1 (centres unmarked) [Example 249, 3-{[2-(4-cyclopropylpiperazin-1-yl)propanoyl]amino}-N-[6-(2-fluorophenyl)pyridin-3-yl]-4-(trifluoromethoxy)benzamide] |  |  | 4.42 | 6.70 |
| CC(C(=O)Nc1cc(NC(=O)c2ccc(-c3cc(F)cc(F)c3)nc2)ccc1OC(F)(F)F)N1C[C@@H]2C[C@H]1CO2 (stereo partly drawn) [Example 198, 6-(3,5-difluorophenyl)-N-[3-({2-[(1S,4S)-2-oxa-5-azabicyclo[2.2.1]hept-5-yl]propanoyl}amino)-4-(trifluoromethoxy)phenyl] nicotinamide] | 4.82 | 6.84 |  |  |
| CS(=O)(=O)Cc1ccc(C(=O)Nc2nnc(-c3ccccc3)s2)cc1NC(=O)CN1CCOCC1 [Example 235, 4-[(methylsulfonyl)methyl]-3-[(morpholin-4-ylacetyl)amino]-N-(5-phenyl-1,3,4-thiadiazol-2-yl)benzamide] | ≤ 4.30 | 5.88 |  |  |
| CC(C(=O)Nc1cc(NC(=O)c2ccc(-c3cc(F)cc(F)c3)nc2)ccc1OC(F)(F)F)N1CCOCC1 (centres unmarked) [Example 219, 6-(3,5-difluorophenyl)-N-[3-{[2-(morpholin-4-yl)propanoyl]amino}-4-(trifluoromethoxy)phenyl] nicotinamide] |  |  | ≤ 4.30 | 6.61 |
| O=C(CN1CCOCC1)Nc1cc(C(=O)Nc2cnc(-c3ccccc3)s2)ccc1OC(F)(F)F [Example 122, 3-[(morpholin-4-ylacetyl)amino]-N-(2-phenyl-1,3-thiazol-5-yl)-4-(trifluoromethoxy)benzamide] | ≤ 4.30 | 6.69 |  |  |
| O=C(CN1CCN(C2CC2)CC1)Nc1cc(C(=O)Nc2nnc(-c3ccccc3)s2)ccc1Br [Example 253, 4-bromo-3-{[(4-cyclopropylpiperazin-1-yl)acetyl]amino}-N-(5-phenyl-1,3,4-thiadiazol-2-yl)benzamide] | ≤ 4.30 | 5.39 |  |  |
| O=C(CN1CCOCC1)Nc1cc(NC(=O)c2cnc(-c3ccccc3)s2)ccc1OC(F)(F)F [Example 252, N-{3-[(morpholin-4-ylacetyl)amino]-4-(trifluoromethoxy)phenyl}-2-phenyl-1,3-thiazole-5-carboxamide] | ≤ 4.30 | 5.64 |  |  |
| C[C@@H]1CN(C)CCN1CC(=O)Nc1cc(C(=O)Nc2ccc(-c3ccccc3F)nc2)ccc1OC(F)(F)F [Example 161, 3-({[(2R)-2,4-dimethylpiperazin-1-yl]acetyl}amino)-N-[6-(2-fluorophenyl)pyridin-3-yl]-4-(trifluoromethoxy)benzamide] | 5.00 | 6.49 |  |  |
| CN1CCN(CC(=O)Nc2cc(C(=O)Nc3nnc(-c4ccccc4F)s3)ccc2OC(F)(F)F)CC1 [Example 150, N-[5-(2-fluorophenyl)-1,3,4-thiadiazol-2-yl]-3-{[(4-methylpiperazin-1-yl)acetyl]amino}-4-(trifluoromethoxy)benzamide] | ≤ 4.30 | 7.12 |  |  |
| Cc1ccccc1-c1nnc(NC(=O)c2ccc(OC(F)(F)F)c(NC(=O)C3(N4CCOCC4)CC3)c2)s1 [Example 257, N-[5-(2-methylphenyl)-1,3,4-thiadiazol-2-yl]-3-({[1-(morpholin-4-yl)cyclopropyl]carbonyl}amino)-4-(trifluoromethoxy)benzamide] | ≤ 4.30 | 7.77 |  |  |

More lines, now with the values ahead:

| pIC50 ([1]; Homo sapiens, HCT-116, 36 h) | pIC50 ([2]; Homo sapiens, HCT-116, 36 h) | pIC50 [1] | pIC50 [2] | SMILES |
| --- | --- | --- | --- | --- |
| ≤ 4.30 | 6.27 |  |  | COCCNC(=O)c1ccc(C(=O)Nc2nnc(-c3ccccc3)s2)cc1NC(=O)CN1CCOCC1 [Example 156, N^1-(2-methoxyethyl)-2-[(morpholin-4-ylacetyl)amino]-N^4-(5-phenyl-1,3,4-thiadiazol-2-yl)terephthalamide] |
| ≤ 4.30 | 6.93 |  |  | O=C(CN1CCOCC1)Nc1cc(C(=O)Nc2nnc(-c3ccccc3)s2)ccc1OC1CC1 [Example 170, 4-(cyclopropyloxy)-3-[(morpholin-4-ylacetyl)amino]-N-(5-phenyl-1,3,4-thiadiazol-2-yl)benzamide] |
| ≤ 4.30 | 6.68 |  |  | COc1ccc(NC(=O)c2cnc(-c3ccccc3)s2)cc1NC(=O)C(C)N1CCOCC1 (centres unmarked) [Example 107, N-(4-methoxy-3-{[2-(morpholin-4-yl)propanoyl]amino}phenyl)-2-phenyl-1,3-thiazole-5-carboxamide] |
| ≤ 4.30 | 5.93 |  |  | O=C(CN1CC2CCC(C1)O2)Nc1cc(C(=O)Nc2nnc(-c3ccccc3)s2)ccc1OC(F)(F)F [Example 240, 3-[(8-oxa-3-azabicyclo[3.2.1]oct-3-ylacetyl)amino]-N-(5-phenyl-1,3,4-thiadiazol-2-yl)-4-(trifluoromethoxy)benzamide] |
|  |  | 5.48 | 6.61 | CC(C(=O)Nc1cc(C(=O)Nc2ccc(-c3cc(F)cc(F)c3)nc2)ccc1OC(F)(F)F)N1CC2CCC(C1)O2 (centres unmarked) [Example 215, N-[6-(3,5-difluorophenyl)pyridin-3-yl]-3-{[2-(8-oxa-3-azabicyclo[3.2.1]oct-3-yl)propanoyl]amino}-4-(trifluoromethoxy)benzamide] |
| 4.70 | 6.57 |  |  | CC1CN(CC(=O)Nc2cc(C(=O)Nc3ccc(-c4ccccc4F)nc3)ccc2OC(F)(F)F)CCN1C (centres unmarked) [Example 137, 3-{[(3,4-dimethylpiperazin-1-yl)acetyl]amino}-N-[6-(2-fluorophenyl)pyridin-3-yl]-4-(trifluoromethoxy)benzamide] |
| 4.66 | 5.92 |  |  | COc1ccc(NC(=O)c2ccc(-c3ccc(F)cc3)s2)cc1NC(=O)CN1CCOCC1 [Example 36, 5-(4-fluorophenyl)-N-{4-methoxy-3-[(morpholin-4-ylacetyl)amino]phenyl}thiophene-2-carboxamide] |
|  |  | 4.74 | 7.69 | CC(C(=O)Nc1cc(NC(=O)c2ccc(-c3ccccc3F)nc2)ccc1OC(F)(F)F)N1CC2CCC(C1)O2 (centres unmarked) [Example 205, 6-(2-fluorophenyl)-N-[3-{[2-(8-oxa-3-azabicyclo[3.2.1]oct-3-yl)propanoyl]amino}-4-(trifluoromethoxy)phenyl] nicotinamide] |
|  |  | 4.89 | 6.43 | CC(C(=O)Nc1cc(NC(=O)c2ccc(-c3cccc(F)c3)nc2)ccc1OC(F)(F)F)N1CC2CCC(C1)O2 (centres unmarked) [Example 220, 6-(3-fluorophenyl)-N-[3-{[2-(8-oxa-3-azabicyclo[3.2.1]oct-3-yl)propanoyl]amino}-4-(trifluoromethoxy)phenyl] nicotinamide] |
